According to patent publication US20180244653A1, “SELECTIVE ALPHA-7 NICOTINIC RECEPTOR AGONISTS AND METHODS FOR MAKING AND USING THEM” (THE REGENTS OF THE UNIVERSITY OF CALIFORNIA, priority 2015, published 2018):
“Also recorded” adds a separate entry of the source.

Columns and labels:
mice = test: Locomotor activity test (Y-maze); type: in vivo; conditions: all tested doses, i.p., 1 h before
Method: A black polyvinyl chloride Y-maze, which was 40 cm long, 3 cm wide at the bottom and 10 cm wide at the top, and 12 cm high in each arm, was used to study the effect of synthesized compounds on locomotor activity. Each mouse was placed at the end of one arm and was allowed to move freely in Y-maze for 8 min after 1 h injection of vehicle or test compounds. The number of entries to all arms was recorded visually if mice accessed into each arm at least 10 cm from the middle of the maze.
Figure S1. Locomotor activity testing of IND8 (A) and QND8 (B). Mice were injected vehicle or test compounds 1 h before moving freely in Y-maze for 8 min. The number of entries into 3 arms was recorded. The one-way ANOVA was used to evaluate the different result between test and vehicle groups.

hERG K^+ channel = hERG K^+ channel (Homo sapiens, UniProt Q12809); conditions: at 20 μM; cited from earlier work
Sequence of hERG K^+ channel (Q12809 whole entry): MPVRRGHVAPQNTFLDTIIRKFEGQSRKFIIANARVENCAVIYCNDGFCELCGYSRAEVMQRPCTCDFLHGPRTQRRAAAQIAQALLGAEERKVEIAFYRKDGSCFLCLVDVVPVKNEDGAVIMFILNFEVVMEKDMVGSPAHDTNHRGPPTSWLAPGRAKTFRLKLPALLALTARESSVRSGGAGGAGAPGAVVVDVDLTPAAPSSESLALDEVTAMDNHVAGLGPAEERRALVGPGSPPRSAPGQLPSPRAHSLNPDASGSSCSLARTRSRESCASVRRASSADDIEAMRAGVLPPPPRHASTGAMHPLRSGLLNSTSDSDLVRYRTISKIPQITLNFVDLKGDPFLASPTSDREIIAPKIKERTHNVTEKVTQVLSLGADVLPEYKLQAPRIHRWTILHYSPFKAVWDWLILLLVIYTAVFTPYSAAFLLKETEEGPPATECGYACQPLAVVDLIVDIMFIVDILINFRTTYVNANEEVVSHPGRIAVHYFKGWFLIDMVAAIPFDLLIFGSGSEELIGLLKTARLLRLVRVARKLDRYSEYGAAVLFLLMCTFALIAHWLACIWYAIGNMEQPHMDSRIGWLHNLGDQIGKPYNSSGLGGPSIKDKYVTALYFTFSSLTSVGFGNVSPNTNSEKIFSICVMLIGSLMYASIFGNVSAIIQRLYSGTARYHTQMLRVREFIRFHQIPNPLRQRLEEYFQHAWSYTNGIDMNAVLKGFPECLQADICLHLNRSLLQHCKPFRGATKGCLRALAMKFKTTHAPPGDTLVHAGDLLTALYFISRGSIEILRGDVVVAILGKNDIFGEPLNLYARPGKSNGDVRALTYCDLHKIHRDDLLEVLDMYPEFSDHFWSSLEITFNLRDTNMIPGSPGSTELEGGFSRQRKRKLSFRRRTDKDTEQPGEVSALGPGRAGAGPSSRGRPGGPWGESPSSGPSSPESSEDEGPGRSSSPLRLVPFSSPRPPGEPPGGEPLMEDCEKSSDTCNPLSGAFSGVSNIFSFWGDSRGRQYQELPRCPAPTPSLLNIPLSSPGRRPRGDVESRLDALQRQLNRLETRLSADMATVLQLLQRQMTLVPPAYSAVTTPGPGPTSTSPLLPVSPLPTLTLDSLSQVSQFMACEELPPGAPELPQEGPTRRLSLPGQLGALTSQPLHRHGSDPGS

Structure (SMILES) | Locomotor activity (number of arm entries) vs vehicle (mice) | inhibition of hERG (hERG K^+ channel) [%]
c1cc2cc(-c3cn(C4CN5CCC4CC5)nn3)ccc2[nH]1 (stereo not drawn) [IND8, 5-((Quinuclid-3-yl)-1H-1,2,3-triazol-4-yl)-1H-indole] | neither a reduction nor an increase in locomotor activity was observed; also recorded: no significant difference | –
O=C(N[C@H]1CN2CCC1CC2)c1ccc(Cl)cc1 [PNU-282987, reference compound] | – | 57
Oc1ccc(-c2cn(C3CN4CCC3CC4)nn2)cc1 (stereo not drawn) [QND8, 3-(4-hydroxyphenyl-1,2,3-triazol-1-yl) quinuclidine] | neither a reduction nor an increase in locomotor activity was observed; also recorded: no significant difference | –
